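These data come from cells grown in 96-well plates and exposed to compound for 48 hours at five concentrations. GI50 is the concentration that inhibits growth by half.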 Calls of active or inactive are those of the source. No stated cut-off is given here; in the data, active = GI50 up to about 1.1 µM and inactive = higher.
Tests used:
Assay in all cases: NCI tumour cell line growth inhibition, 48 h
SN12C = test system: SN12C
SK-OV-3 = test system: SK-OV-3
LOX IMVI = test system: LOX IMVI
SF-295 = test system: SF-295
U-251 = test system: U-251
HL-60 = test system: HL-60
SW-620 = test system: SW-620
HCT-15 = test system: HCT-15
RXF 393 = test system: RXF 393
786-0 = test system: 786-0
M19-MEL = test system: M19-MEL
K562 = test system: K562
SF-539 = test system: SF-539
Hs-578T = test system: Hs-578T
A498 = test system: A498
MDA-MB-231 = test system: MDA-MB-231
NCI/ADR-RES = test system: NCI/ADR-RES
MCF7 = test system: MCF7
T47D = test system: T47D
DLD-1 = test system: DLD-1

| SMILES | GI50 (SN12C) | GI50 (SK-OV-3) | GI50 (LOX IMVI) | GI50 (SF-295) | GI50 (U-251) | GI50 (HL-60) | GI50 (SW-620) | GI50 (HCT-15) [µM] | GI50 (RXF 393) | GI50 (786-0) | GI50 (M19-MEL) | GI50 (K562) | GI50 (SF-539) | GI50 (Hs-578T) | GI50 (A498) | GI50 (MDA-MB-231) | GI50 (NCI/ADR-RES) | GI50 (MCF7) | GI50 (T47D) | GI50 (DLD-1) |
| --- | --- | --- | --- | --- | --- | --- | --- | --- | --- | --- | --- | --- | --- | --- | --- | --- | --- | --- | --- | --- |
| CC(=O)OC12/C(=N/O)CCCCCC1c1ccccc12 (configuration not stated) | > 100 µM (inactive) | > 100 µM (inactive) | > 100 µM (inactive) | 96.8 µM (inactive) | > 100 µM (inactive) | 64.3 µM (inactive) | > 100 µM (inactive) | > 100 | 29.6 µM (inactive) | > 100 µM (inactive) | > 100 µM (inactive) | 39.2 µM (inactive) |  |  |  |  |  |  |  |  |
| C/C(=N/CC(=O)O)c1ccccc1 | > 100 µM (inactive) | > 100 µM (inactive) | > 100 µM (inactive) | > 100 µM (inactive) | > 100 µM (inactive) | 35.9 µM (inactive) | > 100 µM (inactive) | > 100 | > 100 µM (inactive) | > 100 µM (inactive) |  | > 100 µM (inactive) | > 100 µM (inactive) | > 100 µM (inactive) | > 100 µM (inactive) | > 100 µM (inactive) | > 100 µM (inactive) | > 100 µM (inactive) | > 100 µM (inactive) |  |
| O=C(CCC(=O)N/N=C/c1ccccc1O)N/N=C/c1ccccc1O | > 100 µM (inactive) | 18.9 µM (inactive) |  | 32.5 µM (inactive) | 32.7 µM (inactive) |  | > 100 µM (inactive) | 51.4 | 16 µM (inactive) | > 100 µM (inactive) | > 100 µM (inactive) | > 100 µM (inactive) | > 10 µM (inactive) |  |  |  |  |  |  |  |
| Cc1cc(C(O)CCCc2ccccc2)cc(C)c1O (configuration not stated) | 41.8 µM (inactive) | > 100 µM (inactive) | 34 µM (inactive) | 28.8 µM (inactive) | 45.7 µM (inactive) | 16.6 µM (inactive) | 75.7 µM (inactive) | 45.9 | 12 µM (inactive) | 40.6 µM (inactive) | 37.7 µM (inactive) | 28.6 µM (inactive) | 38.2 µM (inactive) |  | 24.5 µM (inactive) |  |  |  |  |  |
| O=C(COc1ccccc1Cl)N1N=C(c2ccccc2)CC1(O)c1ccccc1 (configuration not stated) | 12.9 µM (inactive) | 14.9 µM (inactive) | 16.7 µM (inactive) | 20.5 µM (inactive) | 11.7 µM (inactive) | 9.42 µM (inactive) | 26.5 µM (inactive) | 12.9 |  | 17.3 µM (inactive) | 19 µM (inactive) | 14.3 µM (inactive) | 18.9 µM (inactive) |  |  |  |  |  |  | 18.5 µM (inactive) |
| C=CCCn1nc(-c2ccccc2)oc1=O | > 100 µM (inactive) | > 100 µM (inactive) | > 100 µM (inactive) | > 100 µM (inactive) | > 100 µM (inactive) | > 100 µM (inactive) | > 100 µM (inactive) | > 100 | > 100 µM (inactive) | > 100 µM (inactive) | > 100 µM (inactive) | > 100 µM (inactive) | > 100 µM (inactive) |  | > 100 µM (inactive) |  |  |  |  | > 100 µM (inactive) |
| CCOC(=O)C1(Cc2ccc3ccccc3c2)CCCCCN1 (configuration not stated) | 29.4 µM (inactive) | 32.7 µM (inactive) | 20.1 µM (inactive) | 19 µM (inactive) | 47 µM (inactive) | 18.8 µM (inactive) | 24.5 µM (inactive) | 18.7 | 20.4 µM (inactive) | 17.3 µM (inactive) | 31.1 µM (inactive) | 22.8 µM (inactive) |  |  |  |  |  |  |  | 25.9 µM (inactive) |
| CC1C2=CC=C(O2)C(C)(C)C2=CC=C(O2)C(C)(C)C2=CC=C(O2)C(C)(C)C2=CC=C1O2 | > 100 µM (inactive) | > 100 µM (inactive) | > 100 µM (inactive) | > 100 µM (inactive) | > 100 µM (inactive) | > 100 µM (inactive) | > 100 µM (inactive) | > 100 | > 100 µM (inactive) | > 100 µM (inactive) | > 100 µM (inactive) | > 100 µM (inactive) | > 100 µM (inactive) |  | > 100 µM (inactive) |  |  |  |  |  |
| CC1(C)C(C(=O)OC(C#N)c2cccc(OCC(=O)OCc3ccccc3)c2)C1(C)C (configuration not stated) | > 100 µM (inactive) | > 100 µM (inactive) | 95.7 µM (inactive) | > 100 µM (inactive) | > 100 µM (inactive) | 2.3 µM (inactive) | 70.3 µM (inactive) | > 100 | > 100 µM (inactive) | > 100 µM (inactive) |  | 2.36 µM (inactive) | > 100 µM (inactive) | > 100 µM (inactive) | > 100 µM (inactive) | 66.1 µM (inactive) | 81.5 µM (inactive) | 53 µM (inactive) | 45.8 µM (inactive) |  |
| O=C(N/N=C1\C(=O)N(c2nccs2)C(=O)C(=O)C1c1nc2ccccc2s1)c1ccccc1O (configuration not stated) | 39.1 µM (inactive) | > 100 µM (inactive) | 44.3 µM (inactive) | 47.5 µM (inactive) | 49.8 µM (inactive) | 36.7 µM (inactive) | 47.9 µM (inactive) | 41.8 | 21.1 µM (inactive) | > 100 µM (inactive) | 87.1 µM (inactive) | 19.7 µM (inactive) | 28.1 µM (inactive) |  | 65.3 µM (inactive) |  |  |  |  | 71.1 µM (inactive) |
| CN/N=C(/Cc1occc(=O)c1O)C(=O)Nc1ccccc1C | > 100 µM (inactive) | > 100 µM (inactive) | > 100 µM (inactive) | > 100 µM (inactive) | > 100 µM (inactive) | > 100 µM (inactive) | > 100 µM (inactive) | > 100 |  | > 100 µM (inactive) | > 100 µM (inactive) | > 100 µM (inactive) | > 100 µM (inactive) |  | > 100 µM (inactive) |  |  |  |  |  |
| c1ccc([P+](c2ccccc2)(c2ccccc2)C2Sc3ccccc3S2)cc1 | 16.6 µM (inactive) | 28.8 µM (inactive) | 11.4 µM (inactive) | 17.4 µM (inactive) | 16 µM (inactive) | 5.96 µM (inactive) | > 100 µM (inactive) |  | 14.9 µM (inactive) | 17.3 µM (inactive) | 15.1 µM (inactive) | 16.9 µM (inactive) | 18.3 µM (inactive) |  | 28.1 µM (inactive) |  |  |  |  | 12.4 µM (inactive) |
| CN(c1ccccc1)c1c(Cl)c(=O)oc2c1ccc1occc12 | > 100 µM (inactive) |  | 97.3 µM (inactive) | > 100 µM (inactive) | > 100 µM (inactive) | 15.6 µM (inactive) | > 100 µM (inactive) | 74 | > 100 µM (inactive) | > 100 µM (inactive) | > 100 µM (inactive) | 51.2 µM (inactive) | > 100 µM (inactive) |  | > 100 µM (inactive) |  |  |  |  | > 100 µM (inactive) |
| COC(=O)C(=O)C(C#N)c1nc2ccccc2s1 (configuration not stated) | > 100 µM (inactive) | > 100 µM (inactive) | > 100 µM (inactive) | > 100 µM (inactive) |  | 92.9 µM (inactive) | > 100 µM (inactive) | 57 | > 100 µM (inactive) | > 100 µM (inactive) | > 100 µM (inactive) | 57.4 µM (inactive) | 98.9 µM (inactive) |  | > 100 µM (inactive) |  |  |  |  | 56.4 µM (inactive) |
| CCOC(=O)N1Cc2ccoc2C1 | > 100 µM (inactive) | > 100 µM (inactive) | > 100 µM (inactive) | > 100 µM (inactive) | > 100 µM (inactive) | > 100 µM (inactive) | > 100 µM (inactive) | > 100 | > 100 µM (inactive) | > 100 µM (inactive) | > 100 µM (inactive) | > 100 µM (inactive) | > 100 µM (inactive) |  |  |  |  |  |  | > 100 µM (inactive) |
| Cc1cc(=O)oc2cc(OC(=O)Nc3ccccc3)ccc12 | 74.6 µM (inactive) | 70.6 µM (inactive) | > 100 µM (inactive) | > 100 µM (inactive) | 86.3 µM (inactive) | 20.6 µM (inactive) | 62.8 µM (inactive) | 50.9 | 92.7 µM (inactive) | > 100 µM (inactive) |  | 35.6 µM (inactive) | > 100 µM (inactive) | 64.4 µM (inactive) | 64.4 µM (inactive) | > 100 µM (inactive) | 63.2 µM (inactive) | 88.1 µM (inactive) | 41.9 µM (inactive) |  |
| CCCCCCNC(=S)N/N=C(\C)c1ccccn1 | 1.41 µM (inactive) | 0.181 µM (active) | 0.0493 µM (active) | 0.407 µM (active) | 0.2 µM (active) | < 0.01 µM (active) | < 0.0322 µM (active) | < 0.01 | 0.0189 µM (active) | < 0.0268 µM (active) |  | < 0.01 µM (active) | 1.84 µM (inactive) | 20.7 µM (inactive) | 3.18 µM (inactive) | 0.217 µM (active) | < 0.01 µM (active) | < 0.0415 µM (active) | < 0.01 µM (active) |  |
| Nc1ccc(C2=N/C(=C\c3cccc(N)c3)C(=O)O2)cc1 | > 100 µM (inactive) | > 100 µM (inactive) |  | > 100 µM (inactive) | > 100 µM (inactive) | 57.5 µM (inactive) | > 100 µM (inactive) | > 100 | > 100 µM (inactive) | > 100 µM (inactive) | > 100 µM (inactive) | > 100 µM (inactive) | > 100 µM (inactive) |  |  |  |  |  |  | > 100 µM (inactive) |
| CCOC(=O)C1(C)CCCCC(=O)N1 (configuration not stated) | > 100 µM (inactive) | > 100 µM (inactive) | > 100 µM (inactive) | > 100 µM (inactive) | > 100 µM (inactive) | > 100 µM (inactive) | > 100 µM (inactive) | > 100 | > 100 µM (inactive) | > 100 µM (inactive) | > 100 µM (inactive) | > 100 µM (inactive) |  |  |  |  |  |  |  | > 100 µM (inactive) |
| CN(C)CCNC(=O)c1cccc2cc3c(Cl)cccc3nc12 | 1.07 µM (active) | 3.53 µM (inactive) | 0.583 µM (active) |  | 1.24 µM (inactive) |  | 0.641 µM (active) | 1.19 | 1.7 µM (inactive) | 1.12 µM (active) | 1.33 µM (inactive) | 0.946 µM (active) | 0.873 µM (active) |  | 1.35 µM (inactive) |  |  |  |  | 1.17 µM (inactive) |
